Measurements as given in US12264134B2 (Merck Sharp & Dohme LLC, priority 2018, dated 2025).

target: IDO1 (Homo sapiens, UniProt P14902); test: IDO1 Cellular Assay in HeLa Cells Stimulated with IFNγ; format: cell-based; settings: read-out: HeLa Cell Potency, IC50
Sequence (P14902 whole entry): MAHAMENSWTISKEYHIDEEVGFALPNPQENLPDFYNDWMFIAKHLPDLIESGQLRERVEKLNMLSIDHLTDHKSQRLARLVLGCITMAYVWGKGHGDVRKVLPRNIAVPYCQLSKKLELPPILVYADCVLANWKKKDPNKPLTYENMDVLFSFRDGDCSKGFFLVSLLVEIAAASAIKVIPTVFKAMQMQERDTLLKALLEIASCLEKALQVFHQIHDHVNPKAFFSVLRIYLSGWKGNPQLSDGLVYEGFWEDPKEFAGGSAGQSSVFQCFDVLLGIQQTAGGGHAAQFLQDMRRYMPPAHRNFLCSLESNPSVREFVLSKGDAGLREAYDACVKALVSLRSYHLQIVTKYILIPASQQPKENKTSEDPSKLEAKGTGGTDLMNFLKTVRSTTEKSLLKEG

SMILES | IC50 [µM]
Cc1cccc(N2CCN(C(=O)Cn3nc(C(=O)N4CCS(=N)(=O)CC4)c4c3C[C@H]3C[C@@H]43)CC2)c1C [Example 269, 4-[(3bR,4aR)-1-{2-[4-(2,3-dimethylphenyl)piperazin-1-yl]-2-oxoethyl}-3b,4,4a,5-tetrahydro-1H-cyclopropa[3,4]cyclopenta[1,2-c]pyrazole-3-carbonyl]-1-imino-1lambda~6~,4-thiazinan-1-one] | 0.0386
Cc1cccc(N2CCN(C(=O)Cn3nc(C(=O)N4CCC(O)CC4(C)C)c4c3CCC4)CC2)c1C (centres unmarked) [Example 119, 1-[4-(2,3-dimethylphenyl)piperazin-1-yl]-2-[3-(4-hydroxy-2,2-dimethylpiperidine-1-carbonyl)-5,6-dihydrocyclopenta[c]pyrazol-1(4H)-yl]ethan-1-one] | 0.0333
Cc1c(C#N)cccc1N1CCN(C(=O)Cn2nc(C(=O)N3C[C@@H](C)O[C@@H](C)C3)c3c2CCC3)CC1 [Example 33, 3-[4-({3-[(2R,6S)-2,6-dimethylmorpholine-4-carbonyl]-5,6-dihydrocyclopenta[c]pyrazol-1(4H)-yl}acetyl)piperazin-1-yl]-2-methylbenzonitrile] | 0.065
Cc1cccc(N2CCN(C(=O)Cn3nc(C(=O)N4CCN(C(=O)CO)CC4)c4c3C[C@H]3C[C@@H]43)C(C(F)F)C2)c1C (some centres unmarked) [Example 388] | 0.0926
Cc1cccc(N2CCN(C(=O)C(C)n3nc(C(=O)N4CCC(O)CC4)c4c3CCC4)CC2)c1C (single isomer, unassigned) [Example 489, (R or S)-1-(4-(2,3-dimethylphenyl)piperazin-1-yl)-2-(3-(4-hydroxypiperidine-1-carbonyl)-5,6-dihydro-cyclopenta[c]pyrazol-1(4H)-yl)propan-1-one] | 0.393
C[C@@H]1CN(C(=O)c2nn(CC(=O)N3CCN(c4cc(F)c(F)cc4Cl)CC3)c3c2CCC3)C[C@H](C)O1 [Example 44, 1-[4-(2-chloro-4,5-difluorophenyl)piperazin-1-yl]-2-{3-[(2R,6S)-2,6-dimethylmorpholine-4-carbonyl]-5,6-dihydrocyclopenta[c]pyrazol-1(4H)-yl}ethan-1-one] | 0.26
C[C@@H]1CN(C(=O)c2nn(CC(=O)N3CCN(c4cccc5c4CC5)CC3)c3c2CCC3)C[C@H](C)O1 [Example 446, 1-(4-(bicyclo[4.2.0]octa-1(6),2,4-trien-2-yl)piperazin-1-yl)-2-(3-((2R,6S)-2,6-dimethylmorpholine-4-carbonyl)-5,6-dihydrocyclopenta[c]pyrazol-1(4H)-yl)ethanone] | 0.206
Cc1cc(Cl)ccc1N1CCN(C(=O)Cn2nc(C(=O)N3C[C@@H](C)O[C@@H](C)C3)c3c2CCC3)CC1 [Example 43, 1-[4-(4-chloro-2-methylphenyl)piperazin-1-yl]-2-{3-[(2R,6S)-2,6-dimethylmorpholine-4-carbonyl]-5,6-dihydrocyclopenta[c]pyrazol-1(4H)-yl}ethan-1-one] | 0.0348
Cc1cccc(N2CCN(C(=O)Cn3nc(C(=O)N4C[C@@H](C)O[C@@H](C)C4)c4c3CCC4)CC2)c1 [Example 488, 2-(3-((2S,6R)-2,6-dimethylmorpholine-4-carbonyl)-5,6-dihydrocyclopenta [c]pyrazol-1(4H)-yl)-1-(4-(m-tolyl)piperazin-1-yl)ethanone] | 0.0838
Cc1cccc(N2CCN(C(=O)Cn3nc(C(=O)N4CC[C@@H](N)[C@@H](F)C4)c4c3CCC4)CC2)c1C [Example 214, [(3S,4R)-1-[1-[2-[4-(2,3-dimethylphenyl)piperazin-1-yl]-2-oxo-ethyl]-5,6-dihydro-4H-cyclopenta[c]pyrazole-3-carbonyl]-3-fluoro-4-piperidyl]ammonium;formate] | 0.105
C[C@@H]1CN(C(=O)c2nn(CC(=O)N3CCN(c4cccc(F)c4F)CC3)c3c2CCC3)C[C@H](C)O1 [Example 35, 1-[4-(2,3-difluorophenyl)piperazin-1-yl]-2-{3-[(2R,6S)-2,6-dimethylmorpholine-4-carbonyl]-5,6-dihydrocyclopenta[c]pyrazol-1(4H)-yl}ethan-1-one] | 0.487
Cc1cccc(N2CCN(C(=O)Cn3nc(C(=O)N4CCC(O)CC4)c4c3C[C@H]3C[C@@H]43)C(C(F)F)C2)c1C (stereo partly drawn) [Example 385, 1-(2-(difluoromethyl)-4-(2,3-dimethylphenyl)piperazin-1-yl)-2-((3bR,4aR)-3-(4-hydroxypiperidine-1-carbonyl)-3b,4,4a,5-tetrahydro-1H-cyclopropa[3,4]cyclopenta[1,2-c]pyrazol-1-yl)ethanone] | 0.0349
Cc1cccc(N2CCN(C(=O)Cn3nc(C(=O)N4CCC5(CC4)CNC(=O)N5)c4c3CCC4)CC2)c1C [Example 184, 8-(1-{2-[4-(2,3-dimethylphenyl)piperazin-1-yl]-2-oxoethyl}-1,4,5,6-tetrahydrocyclopenta[c]pyrazole-3-carbonyl)-1,3,8-triazaspiro[4.5]decan-2-one] | 0.0802

Compounds with a lower IC50, results first:

IC50 [µM] | SMILES
0.00301 | Cc1cccc(N2CCN(C(=O)Cn3nc(C(=O)N4CCC(O)C(F)C4)c4c3C[C@H]3C[C@@H]43)C3(CC3)C2)c1C (stereo in doubt) [Example 361, 1-(7-(2,3-dimethylphenyl)-4,7-diazaspiro[2.5]octan-4-yl)-2-((3bR,4aR)-3-((3S,4S)-3-fluoro-4-hydroxypiperidine-1-carbonyl)-3b,4,4a,5-tetrahydro-1H-cyclopropa[3,4]cyclopenta[1,2-c]pyrazol-1-yl)ethanone]
0.00078 | Cc1c(N2CCN(C(=O)Cn3nc(C(=O)N4CCC(O)(CF)CC4)c4c3C[C@H]3C[C@@H]43)CC2)cccc1C(F)(F)F [Example 336, 2-((3bR,4aR)-3-(4-(fluoromethyl)-4-hydroxypiperidine-1-carbonyl)-3b,4,4a,5-tetrahydro-1H-cyclopropa[3,4]cyclopenta[1,2-c]pyrazol-1-yl)-1-(4-(2-methyl-3-(trifluoromethyl)phenyl)piperazin-1-yl)ethanone]
0.00669 | Cc1cccc(N2CCN(C(=O)Cn3nc(C(=O)N4C[C@@H](C)O[C@@H](C)C4)c4c3CC[C@@H](C(F)(F)F)C4)CC2)c1C [Example 295, 2-[(5R)-3-[(2R,6S)-2,6-dimethylmorpholine-4-carbonyl]-5-(trifluoromethyl)-4,5,6,7-tetrahydro-1H-indazol-1-yl]-1-[4-(2,3-dimethylphenyl)piperazin-1-yl]ethan-1-one]
0.00125 | Cc1cccc(N2CCN(C(=O)Cn3nc(C(=O)N4CCC(O)CC4(C)C)c4c3CCCC4)CC2)c1C (centres unmarked) [Example 461, 1-(4-(2,3-dimethylphenyl)piperazin-piperazin-1-yl)-2-(3-(4-hydroxy-2,2-dimethylpiperidine-1-carbonyl)-4,5,6,7-tetrahydro-1H-indazol-1-yl)ethanone]
0.00573 | Cc1cccc(N2CCN(C(=O)Cn3nc(C(=O)N4CC[S+]([O-])CC4)c4c3C[C@H]3C[C@@H]43)CC2)c1C [Example 266, 4-[(3bR,4aR)-1-{2-[4-(2,3-dimethylphenyl)piperazin-1-yl]-2-oxoethyl}-3b,4,4a,5-tetrahydro-1H-cyclopropa[3,4]cyclopenta[1,2-c]pyrazole-3-carbonyl]-1lambda~4~,4-thiazinan-1-one]
0.0164 | Cc1cccc(N2CCN(C(=O)Cn3nc(C(=O)N4CCC(F)(CN)CC4)c4c3CCC4)CC2)c1C [Example 178, 2-{3-[4-(aminomethyl)-4-fluoropiperidine-1-carbonyl]-5,6-dihydrocyclopenta[c]pyrazol-1(4H)-yl}-1-[4-(2,3-dimethylphenyl)piperazin-1-yl]ethan-1-one]
0.0019 | Cc1cccc(N2CCN(C(=O)Cn3nc(C(=O)N4CCC5(CC4)CC5CO)c4c3CCC4)CC2)c1C (centres unmarked) [Example 143, 1-[4-(2,3-dimethylphenyl)piperazin-1-yl]-2-{3-[1-(hydroxymethyl)-6-azaspiro[2.5]octane-6-carbonyl]-5,6-dihydrocyclopenta[c]pyrazol-1(4H)-yl}ethan-1-one]
0.00733 | Cc1cccc(N2CCN(C(=O)Cn3nc(C(=O)N4CCC5(CCC(=O)N5C)CC4)c4c3CCC4)CC2)c1C [Example 140, 8-(1-{2-[4-(2,3-dimethylphenyl)piperazin-1-yl]-2-oxoethyl}-1,4,5,6-tetrahydrocyclopenta[c]pyrazole-3-carbonyl)-1-methyl-1,8-diazaspiro[4.5]decan-2-one]
0.0299 | Cc1cccc(N2CCN(C(=O)Cn3nc(C(=O)N4C[C@@H](C)O[C@@H](C)C4)c4c3CCC(C(F)(F)F)C4)CC2)c1C (stereo partly drawn) [Example 303, 2-{3-[(2R,6S)-2,6-dimethylmorpholine-4-carbonyl]-5-(trifluoromethyl)-4,5,6,7-tetrahydro-1H-indazol-1-yl}-1-[4-(2,3-dimethylphenyl)piperazin-1-yl]ethan-1-one]
0.00513 | Cc1cccc(N2CCN(C(=O)Cn3nc(C(=O)N4CCC(O)CC4)c4c3CC(F)(F)CC4)CC2)c1C [Example 21, 2-(6,6-difluoro-3-(4-hydroxypiperidine-1-carbonyl)-4,5,6,7-tetrahydro-1H-indazol-1-yl)-1-(4-(2,3-dimethylphenyl)piperazin-1-yl)ethanone]
0.028 | Cc1cccc(N2CCN(C(=O)Cn3nc(C(=O)N4CC[C@@H](N)[C@H](F)C4)c4c3CCC4)CC2)c1C [Example 207, [(3R,4R)-1-[1-[2-[4-(2,3-dimethylphenyl)piperazin-1-yl]-2-oxo-ethyl]-5,6-dihydro-4H-cyclopenta[c]pyrazole-3-carbonyl]-3-fluoro-4-piperidyl]ammonium;formate]
0.00376 | Cc1cccc(N2CCN(C(=O)Cn3nc(C(=O)N4CCC(CO)(CO)CC4)c4c3C[C@H]3C[C@@H]43)CC2)c1C [Example 221, 2-{(3bR,4aR)-3-[4,4-bis(hydroxymethyl)piperidine-1-carbonyl]-3b,4,4a,5-tetrahydro-1H-cyclopropa[3,4]cyclopenta[1,2-c]pyrazol-1-yl}-1-[4-(2,3-dimethylphenyl)piperazin-1-yl]ethan-1-one]
0.00698 | Cc1cccc(N2CCN(C(=O)Cn3nc(C(=O)N4CCC(S(C)(=O)=O)CC4)c4c3CCC4)CC2)c1C [Example 139, 1-[4-(2,3-dimethylphenyl)piperazin-1-yl]-2-{3-[4-(methylsulfonyl)piperidine-1-carbonyl]-5,6-dihydrocyclopenta[c]pyrazol-1(4H)-yl}ethan-1-one]
